± gives the standard deviation of the reports.
| glass transition temperature | Compound |
| --- | --- |
| 247.00 ± 16 °C | *c1ccc2c(c1)C(=O)N(c1ccc(Oc3ccc(C(c4ccc(Oc5ccc(N6C(=O)c7ccc(C(*)(C(F)(F)F)C(F)(F)F)cc7C6=O)cc5)cc4)(C(F)(F)F)C(F)(F)F)cc3)cc1)C2=O (repeat unit) |
| 93.00 °C | *CCCCCCCCCCCC(=O)Oc1ccc(C(C)(C)c2ccc(OC(=O)c3ccc4c(c3)C(=O)N(*)C4=O)cc2)cc1 (repeat unit) |
| 361.00 °C | *c1ccc2c(c1)C(=O)N(c1c(C)cc(-c3cc(C)c(-c4cc(C)c(N5C(=O)c6ccc(C(*)(C(F)(F)F)C(F)(F)F)cc6C5=O)c(C)c4)cc3C)cc1C)C2=O (repeat unit) |
| 159.00 °C | *c1ccc2c(c1)C(=O)N(c1cccc(C(F)(F)C(F)(F)C(F)(F)c3cccc(N4C(=O)c5ccc(C(F)(F)C(F)(F)C(F)(F)C(*)(F)F)cc5C4=O)c3)c1)C2=O (repeat unit) |
| 263.00 °C | *c1ccc(C(=O)c2ccc(Oc3ccc(-c4nn(*)c(=O)c5ccccc45)cc3)cc2)cc1 (repeat unit) |
| 148.90 °C | *Oc1ccc(S(=O)(=O)c2ccc(Oc3ccc(C(c4ccc(*)c([Si](C)(C)C)c4)(C(F)(F)F)C(F)(F)F)cc3[Si](C)(C)C)cc2[Si](C)(C)C)c([Si](C)(C)C)c1 (repeat unit) |
| 181.00 °C | *Oc1ccc(C(c2ccc(Oc3ccc(C(=O)c4cc(C(=O)c5ccc(*)cc5)cc(C(C)(C)C)c4)cc3)cc2)(C(F)(F)F)C(F)(F)F)cc1 (repeat unit) |
| 164.00 °C | *CCCCCCN1C(=O)c2ccc(Oc3ccc4c(c3)C(=O)N(*)C4=O)cc2C1=O (repeat unit) |
| 135.00 °C | *Oc1ccc(C(c2ccc(OC(=O)c3ccc(C(c4ccc(C(*)=O)cc4)(C(F)(F)F)C(F)(F)F)cc3)cc2)(C(F)(F)F)C(F)(F)F)cc1 (repeat unit) |
| 129.00 °C | *Cc1ccc(C(C)c2ccc(CN3C(=O)c4ccc(Oc5ccc6c(c5)C(=O)N(*)C6=O)cc4C3=O)o2)o1 (repeat unit) |
| 315.00 °C | *C(=O)c1ccc2c(c1)C(=O)N(c1cc(C(c3ccc(O)c(N4C(=O)c5ccc(*)cc5C4=O)c3)(C(F)(F)F)C(F)(F)F)ccc1O)C2=O (repeat unit) |
| 217.00 °C | *c1cccc(Cc2cccc(N3C(=O)c4ccc([Si](C)(C)O[Si](C)(C)c5ccc6c(c5)C(=O)N(*)C6=O)cc4C3=O)c2)c1 (repeat unit) |
| 241.00 °C | *Oc1ccc(NC(=O)c2ccc(C(c3ccc(C(=O)Nc4ccc(Oc5ccc(C6(c7ccc(*)cc7)C7CC8CC(C7)CC6C8)cc5)cc4)cc3)(C(F)(F)F)C(F)(F)F)cc2)cc1 (repeat unit) |
| 174.00 °C | *c1ccc2c(c1)C(CCCCCC)(CCCCCC)c1cc(-c3ccc4c(c3)c3cc(*)ccc3n4-c3ccc(OC)cc3)ccc1-2 (repeat unit) |
| 300.00 °C | *c1ccc(Oc2ccc(S(=O)(=O)c3ccc(Oc4ccc(-c5c6c(c(*)c7ccccc57)C(=O)N(c5ccc(F)cc5)C6=O)cc4)cc3)cc2)cc1 (repeat unit) |
| 331.00 °C | *C(=O)Nc1cccc(C(=O)Nc2cccc(NC(=O)c3ccc4[nH]c(-c5cccc(-c6nc7cc(*)ccc7[nH]6)c5)nc4c3)c2)c1 (repeat unit) |
| 164.00 °C | *C(=O)Nc1cc(NC(=O)c2ccc3c(c2)C(=O)N(c2cc(-c4nnc(-c5ccccn5)o4)cc(N4C(=O)c5ccc(*)cc5C4=O)c2)C3=O)cc(-c2nnc(-c3ccccn3)o2)c1 (repeat unit) |
| 359.00 °C | *c1ccc(Sc2ccc(-n3c(=O)c4cc5c(=O)n(*)c(=O)c5cc4c3=O)cn2)nc1 (repeat unit) |
| 286.00 °C | *c1ccc(S(=O)(=O)c2ccc(NC(=O)c3cccc(C(=O)Nc4ccc(S(=O)(=O)c5ccc(-n6c(=O)c7cc8c(=O)n(*)c(=O)c8cc7c6=O)cc5)cc4)c3)cc2)cc1 (repeat unit) |
| 278.00 °C | *c1ccc(Oc2ccc(N3C(=O)CC(C4C=C(C)C5C(=O)N(*)C(=O)C5C4)C3=O)cc2)cc1 (repeat unit) |
| 247.00 °C | *C(=O)c1ccc2c(c1)C(=O)N(c1ccc(NC(=O)c3cccc(C(=O)Nc4ccc(N5C(=O)c6ccc(*)cc6C5=O)cc4)c3)cc1)C2=O (repeat unit) |

Continued, compound first:

| Compound | glass transition temperature |
| --- | --- |
| *CC(*)(CC(=O)OCCOCCOCCOC)C(=O)OCCOCCOCCOC (repeat unit) | -19.00 °C |
| *CC(*)CNc1ccc([N+](=O)[O-])cc1C (repeat unit) | 151.00 °C |
| *CC(CN1C(=O)C2C3C=CC(C3)C2C1=O)O* (repeat unit) | 87.50 °C |
| *CC(*)c1ccc(CCCC)cc1 (repeat unit) [Poly(p-n-butyl styrene) ] | 6 ± 0.6 °C |
| *CCC1C(=O)N(CCC)C(=O)C1* (repeat unit) | 90.40 °C |
| *Oc1ccc(CC(NC(=O)CCc2ccc(OC(=O)CCCCC(*)=O)cc2)C(=O)OCCCCCCCCCCCC)cc1 (repeat unit) | 22.00 °C |
| *CC(*)(CC(=O)OC1CCCCCCC1)C(=O)OC1CCCCCCC1 (repeat unit) | 124.00 °C |
| *CC(*)C(=O)Oc1cccc(C(=O)OC)c1 (repeat unit) | 38.00 °C |
| *CC(*)(CC(=O)OCCC)C(=O)OCCC (repeat unit) | 46.50 °C |
| *CC(=O)Nc1ccc(Cc2ccc(NC(=O)COc3ccc4ccccc4c3Sc3c(O*)ccc4ccccc34)cc2)cc1 (repeat unit) | 241.00 °C |
| *CC(*)(C)C(=O)OCCCCCCCCCCCCCC (repeat unit) | -72.00 °C |
| *Oc1cc(C(C)(C)c2ccccc2)c(OC(=O)c2cccc(C(*)=O)c2)cc1C(C)(C)c1ccccc1 (repeat unit) | 180.00 °C |
| *Oc1ccc(OC(=O)c2ccc(OC(=O)c3ccc(C(=O)Oc4ccc(C(*)=O)cc4)cc3)cc2)cc1 (repeat unit) | 283.00 °C |
| *CC(*)(C)C(=O)OCCO[N+](=O)[O-] (repeat unit) | 55.00 °C |
| *CCCCCCOC(=O)OCCCCOC(=O)OCCCCCCOc1ccc(Oc2ccc(O*)cc2)cc1 (repeat unit) | -8.00 °C |
| *Oc1ccc(OC(=O)c2cc(OCCCCCCCCOCC3CCCN3c3ccc([N+](=O)[O-])cc3)c(C(*)=O)cc2OCCCCCCCCOCC2CCCN2c2ccc([N+](=O)[O-])cc2)cc1 (repeat unit) | 41.00 °C |
| *CC(*)C(=O)OC(C)(C)C (repeat unit) [Poly(t-butyl acrylate)] | 41 ± 0.9 °C |
| *CCCCc1ccc(-c2c(-c3ccccc3)cc(-c3cccc(-c4cc(-c5ccccc5)c(-c5ccc(*)cc5)c(-c5ccccc5)c4-c4ccccc4)c3)c(-c3ccccc3)c2-c2ccccc2)cc1 (repeat unit) | 180.00 °C |
| *OC(COC(=O)NCCCCCCNC(*)=O)c1ccco1 (repeat unit) | 17.00 °C |
| *c1ccc(Cc2ccc(N(c3ccc(C)cc3)c3ccc(-c4ccc(N(*)c5ccc(C)cc5)cc4)cc3)cc2)cc1 (repeat unit) | 183.00 °C |
| *OC(=O)OC1COC2C(*)COC12 (repeat unit) | 140.00 °C |
| *CCN(CCOC(=O)NCC1(C)CC(NC(=O)O*)CC(C)(C)C1)c1ccc(C=C(C#N)C#N)cc1 (repeat unit) | 145.00 °C |

| Compound | glass transition temperature |
| --- | --- |
| *CC(*)c1ccc(C(=O)OCC)cc1 (repeat unit) | 94.00 °C |
| *c1ccc(Oc2ccc(-c3cc(OCCCCCC)c(-c4ccc(Oc5ccc(-c6nnc(*)o6)cc5)cc4)cc3OCCCCCC)cc2)cc1 (repeat unit) | 103.00 °C |
| *CC(O)COc1ccc(C(C)CC(C)(C)c2ccc(O*)cc2)cc1 (repeat unit) | 75.00 °C |
| *CCN(*)C(=O)c1cc(F)c(F)c(F)c1 (repeat unit) | 65.00 °C |
| *Cc1ccc(CNC(=O)CCCCCCCCCC(=O)N*)cc1 (repeat unit) | 110.00 °C |
| *Oc1ccc(P(=O)(c2ccccc2)c2ccc(*)cc2)cc1 (repeat unit) | 240.00 °C |
| *[Si](*)(CCCC)CCCC (repeat unit) | -40.50 °C |
| *c1ccc(OCCCCCCCCCCCOC(=O)c2cccc(C(=O)OCCCCCCCCCCCOc3ccc(-c4nnc(*)s4)cc3)c2)cc1 (repeat unit) | 68.00 °C |
| *c1ccc(-c2ccc(-c3ccc(-c4ccc(-c5cc(-c6ccccc6)c6cc(-c7ccc8nc(*)cc(-c9ccccc9)c8c7)ccc6n5)cc4)cc3)cc2)cc1 (repeat unit) | 355.00 °C |
| *CC(*)(C)C(=O)OCC1COC(CP(=O)(OCC)OCC)O1 (repeat unit) | 115.00 °C |
| *c1ccc(Oc2ccc(-c3ccc(Oc4ccc(-c5nc(*)nc(-c6ccccc6)n5)cc4)cc3)cc2)cc1 (repeat unit) | 241.00 °C |
| *OP(=O)(Oc1ccc(C)cc1)Oc1c(C)cc(S(=O)(=O)c2cc(C)c(*)c(C)c2)cc1C (repeat unit) | 128.00 °C |
| *OC(COC(*)=O)COc1ccccc1 (repeat unit) | 45.00 °C |
| *Cc1ccccc1[Si](*)(C)C (repeat unit) | 48.00 °C |
| *c1ccc(NC2CC(=O)N(c3ccc(-c4sc(-c5ccc(N6C(=O)CC(Nc7ccc(-c8nc(-c9ccc(/C=C/c%10ccc([N+](=O)[O-])cc%10)s9)[nH]c8*)cc7)C6=O)cc5)c(-c5ccccc5)c4-c4ccccc4)cc3)C2=O)cc1 (repeat unit) | 304.00 °C |
| *Oc1cccc(NC(=O)c2ccc(C(=O)Nc3ccc(Oc4ccc(C(=O)c5ccc(*)cc5)cc4)cc3)cc2)c1 (repeat unit) | 126.00 °C |
| *CCCCCOC(=O)NCC(F)(F)C(F)(F)C(F)(F)C(F)(F)CNC(=O)O* (repeat unit) | 33.00 °C |
| *CCCCCCCCCCSSSS* (repeat unit) | -76.00 °C |
| */C=C(/*)c1ccccc1[Si](C)(C)C (repeat unit) | 190.00 °C |
| *CC(*)(C)C(=O)OCCCCCCOc1ccc(C(=O)Oc2ccc(/N=N/c3ccc(C)cc3)c3ccccc23)cc1 (repeat unit) | 40.00 °C |
| */C=C/c1ccc(OC(=O)CCCCCCCCC(=O)Oc2ccc(-c3nnc(*)s3)cc2)cc1 (repeat unit) | 30.00 °C |

From the PolyMetriX glass transition set
